# From patent publication EP4629837B1, “ANIMAL FEED COMPOSITION HAVING A COMBINATION OF FENUGREEK AND NEOHESPERIDIN DIHYDROCHALCONE (NHDC) TO IMPROVE PERFORMANCE OF ANIMALS OR STIMULATE THEIR SWEET TASTE RECEPTORS” (ADM International Sàrl, priority 2022, dated 2024)
# Where a SMILES comes first, the peptide text is derived from it.
# Assays:
# [1] = target: T1, pig sweet taste receptors (Sus scrofa, UniProt I1ZBR6+Q0EF93); assay: Activation of heterologously expressed pig sweet taste receptors in HEK293T-PEAK rapid Gα15 cells (Fluo-4 AM Ca2+ fluorescence, dose-response); format: cell-based; conditions: single compounds and 1:4 combination, heterologous system of Example 1
# T1 sequence (I1ZBR6 entry or part of it): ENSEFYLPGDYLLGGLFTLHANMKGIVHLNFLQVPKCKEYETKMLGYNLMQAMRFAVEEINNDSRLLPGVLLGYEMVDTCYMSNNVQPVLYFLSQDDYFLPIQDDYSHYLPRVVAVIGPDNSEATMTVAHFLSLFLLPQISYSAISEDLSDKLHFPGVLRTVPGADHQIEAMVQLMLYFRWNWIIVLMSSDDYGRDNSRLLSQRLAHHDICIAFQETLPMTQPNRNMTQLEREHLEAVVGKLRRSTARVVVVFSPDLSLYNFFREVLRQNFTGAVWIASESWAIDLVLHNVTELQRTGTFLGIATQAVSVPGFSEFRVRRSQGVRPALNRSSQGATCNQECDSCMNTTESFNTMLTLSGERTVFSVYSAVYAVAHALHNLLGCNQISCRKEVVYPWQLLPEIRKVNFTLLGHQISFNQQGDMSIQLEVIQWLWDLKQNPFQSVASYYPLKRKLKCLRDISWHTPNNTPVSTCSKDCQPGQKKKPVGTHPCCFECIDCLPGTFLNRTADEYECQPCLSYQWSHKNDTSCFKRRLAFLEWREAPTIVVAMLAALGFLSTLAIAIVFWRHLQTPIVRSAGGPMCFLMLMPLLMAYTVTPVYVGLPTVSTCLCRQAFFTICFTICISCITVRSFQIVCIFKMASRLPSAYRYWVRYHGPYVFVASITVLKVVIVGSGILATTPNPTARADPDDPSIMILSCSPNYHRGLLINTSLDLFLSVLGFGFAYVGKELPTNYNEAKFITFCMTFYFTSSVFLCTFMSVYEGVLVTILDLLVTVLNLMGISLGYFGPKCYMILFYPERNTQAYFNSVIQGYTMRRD
# T1 sequence (Q0EF93 entry or part of it): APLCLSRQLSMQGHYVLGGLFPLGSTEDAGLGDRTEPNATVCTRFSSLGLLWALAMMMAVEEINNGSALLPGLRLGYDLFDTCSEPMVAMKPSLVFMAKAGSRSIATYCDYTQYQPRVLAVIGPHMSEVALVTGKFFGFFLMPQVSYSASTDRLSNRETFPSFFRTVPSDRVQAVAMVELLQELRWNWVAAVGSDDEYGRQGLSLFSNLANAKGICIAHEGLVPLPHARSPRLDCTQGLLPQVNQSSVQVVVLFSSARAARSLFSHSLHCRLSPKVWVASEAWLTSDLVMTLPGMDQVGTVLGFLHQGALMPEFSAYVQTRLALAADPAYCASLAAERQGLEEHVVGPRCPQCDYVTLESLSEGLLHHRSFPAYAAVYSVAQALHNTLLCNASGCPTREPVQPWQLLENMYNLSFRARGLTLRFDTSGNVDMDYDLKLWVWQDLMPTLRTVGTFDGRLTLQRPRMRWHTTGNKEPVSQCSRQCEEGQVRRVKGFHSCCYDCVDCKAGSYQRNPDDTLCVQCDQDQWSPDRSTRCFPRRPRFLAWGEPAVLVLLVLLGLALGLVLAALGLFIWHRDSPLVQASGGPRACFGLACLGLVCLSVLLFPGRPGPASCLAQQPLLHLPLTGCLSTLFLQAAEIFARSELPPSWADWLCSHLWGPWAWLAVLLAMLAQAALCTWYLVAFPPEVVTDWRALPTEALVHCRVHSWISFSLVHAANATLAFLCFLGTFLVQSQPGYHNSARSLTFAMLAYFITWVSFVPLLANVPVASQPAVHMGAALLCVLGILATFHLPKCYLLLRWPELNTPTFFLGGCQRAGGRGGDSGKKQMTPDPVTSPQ
# Protocol: For the production of pig sweet taste receptor constructs, full length coding sequences of pig taste receptors T1R2 and T1R3 of pigs were synthesized and ligated into modified expression vectors pcDNA3/TO and pcDNA5/FRT/PM for evaluation. Amino-terminal sst-tags were added to facilitate cell membrane targeting, cytomegalovirus (CMV) promoters were added to control gene expression, and carboxylterminal FLAG or HSV tags were added to enable immunological detection of receptor subunits 1,2. […]
# Functional expression of sweet taste receptors. The pig sweet taste receptor function was analyzed by transfecting the HEK293T-PEAK rapid Gα15 cells with taste receptor constructs described herein. […]
# The transfected cells were analyzed with each of the sweeteners/compounds individually using a wide range of concentrations. The ligand binding and subsequent activation of the taste receptor causes an influx of Ca^2+ ions into the cell, which can be measured as an increase in fluorescent signaling using a microplate reader as shown in Figure 2.
# The dose-response curves are calculated by using mean fluorescence values of multiple wells receiving the same concentration of sweetener/compound, and subtracting fluorescence changes of corresponding cells transfected with empty vector (ΔF). Signals are normalized to background fluorescence (ΔF/F). […]
# [2] = target: T1, pig sweet taste receptors; conditions: Daly et al.; cited from earlier work
# [3] = system: pig intestine; conditions: Daly et al.; cited from earlier work
SMILES,In vitro EC50 (mg/ml) for pig sweet taste receptors [1],activation of pig sweet taste receptors in vitro [2],glucose uptake in the pig intestine [3]
"COc1ccc(CCC(=O)c2c(O)cc(O[C@@H]3O[C@H](CO)[C@@H](O)[C@H](O)[C@H]3O[C@@H]3O[C@@H](C)[C@H](O)[C@@H](O)[C@H]3O)cc2O)cc1O [NHDC # 020D066, 1-(4-((2-O-[6-Deoxy-α-L-mannopyranosyl]-β-D-glucopyranosyl)oxy)-2,6-dihydroxyphenyl)-3-[3-hydroxy-4-methoxyphenyl]-1-poranone]",0.62 mg/mL,,
C=C1C[C@@]23CC[C@H]4[C@@](C)(CCC[C@@]4(C)C(=O)O[C@@H]4O[C@H](CO)[C@@H](O)[C@H](O)[C@H]4O)[C@@H]2CC[C@]1(O[C@@H]1O[C@H](CO)[C@@H](O)[C@H](O[C@@H]2O[C@H](CO)[C@@H](O)[C@H](O)[C@H]2O)[C@H]1O[C@@H]1O[C@H](CO)[C@@H](O)[C@H](O)[C@H]1O)C3 [Rebaudioside A],0.76 mg/mL,,
COC(=O)[C@H](Cc1ccccc1)NC(=O)[C@@H](N)CC(=O)O [aspartame] (H-Asp-Phe-OMe),,do not activate pig sweet taste receptors in vitro,do not induce higher glucose uptake in the pig intestine
